Where two headings read alike, the source gives them in different places. Where a SMILES comes first, the peptide text is derived from it. Bridges are numbered along the chain shown (N, C = ends). [ ]: non-standard residue; d: D form. Tle = CC(C)(C)[C@H](N)C(=O)O; dDab = NCC[C@@H](N)C(=O)O; Orn = NCCC[C@H](N)C(=O)O; Dab = NCC[C@H](N)C(=O)O; Dap = NC[C@H](N)C(=O)O
Columns and labels:
[1] = tested on: Acinetobacter baumannii DSM 30008; assay type: cell-based
Protocol: (§1) Stock solutions were kept at +4° C., light protected.
(§2) The selective antimicrobial activities of the peptides were determined in 96-well plates (Greiner, polystyrene) by the standard NCCLS broth microdilution method (National Committee for Clinical Laboratory Standards 1993. Methods for dilution antimicrobial susceptibility tests for bacteria that grow aerobically, 3rd ed. Approved standard M7-A6; National Committee for Clinical laboratory standards, Wayne, Pa.) with slight modifications. Inocula of the microorganisms were diluted into Mueller-Hinton II (MH, cation adjusted) broth and compared with a 0.5 McFarland standard to give appr. 10^6 colony forming units (CFU)/mL. Aliquots (90 μl) of inoculate were added to 10 μl of MH broth+P-80 (Polysorbate 80, 0.002% final concentration) containing the peptide in serial two-fold dilutions. The following microorganisms were used to determine antibiotic selectivity of the peptides: Escherichia coli ATCC 25922, Klebsiella pneumoniae ATCC 13883 and Acinetobacter baumannii DSM 30008.

[2] = tested on: Escherichia coli ATCC 25922; assay type: cell-based
Protocol: as §1, §2

[3] = tested on: Klebsiella pneumoniae ATCC 13883; assay type: cell-based
Protocol: as §1, §2

[4] = tested on: human red blood cells (hRBC); experiment: Hemolysis: hemolytic activity at 100 μg/mL, 1 h at 37° C.
Protocol: Lyophilized peptides were weighed on a Microbalance (Mettler MT5) and dissolved in sterile water to a final concentration of 1 mg/mL. Stock solutions were kept at +4° C., light protected.
The peptides were tested for their hemolytic activity against human red blood cells (hRBC). Fresh hRBC were washed three times with phosphate buffered saline (PBS) and centrifuged for 5 min at 3000×g. Compounds (100 μg/mL) were incubated with 20% hRBC (v/v) for 1 h at 37° C. and shaking at 300 rpm. The final erythrocyte concentration was approximately 0.9×10^9 cells/mL. A value of 0% and 100% cell lyses, respectively, was determined by incubation of hRBC in the presence of PBS containing 0.001% acetic acid and 2.5% Triton X-100 in H2O, respectively. The samples were centrifuged, the supernatants were 8-fold diluted in PBS buffer and the optical densities (OD) were measured at 540 nm.
Percent hemolysis was calculated as follows: (OD540peptide/OD540H2O)×100%.

[5] = Mueller-Hinton II broth, 18-20 hours at 35° C.

SMILES	Acinetobacter baumannii DSM 30008 MIC ([1]; DSM 30008) [µg/mL]	Escherichia coli ATCC 25922 MIC ([2]; ATCC 25922) [µg/mL]	Klebsiella pneumoniae ATCC 13883 MIC ([3]; ATCC 13883) [µg/mL]	Hemolysis at 100 μg/mL ([4]; red cells of human, 1 h, 100) [%]	Acinetobacter baumannii DSM 30008 MIC [1, 5] [µg/mL]	Escherichia coli ATCC 25922 MIC [2, 5] [µg/mL]	Klebsiella pneumoniae ATCC 13883 MIC [3, 5] [µg/mL]	Hemolysis at 100 μg/mL ([4]; 100 μg/mL, 20% hRBC, 1 h at 37° C.) [%]
CC(C)C[C@@H]1NC(=O)[C@H](CCCCN)NC(=O)[C@@H](CCN)NC(=O)[C@H](C(C)C)NC(=O)[C@@H]2CSSC[C@H](NC1=O)C(=O)N[C@@H](Cc1ccc(O)cc1)C(=O)N[C@@H](CC(N)=O)C(=O)N[C@@H](CCCN)C(=O)N[C@H](CCN)C(=O)N[C@@H](CCN)C(=O)N[C@@H](Cc1c[nH]c3ccccc13)C(=O)N[C@@H](CO)C(=O)N[C@@H](Cc1ccc(O)cc1)C(=O)N2 [Example 67, cyclo(-Leu-Cys-Tyr-Asn-Orn-^DDab-Dab-Trp-Ser-Tyr-Cys-Val-^DDab-Lys-)] (HELM PEPTIDE1{C.V.[NCC[C@@H](N[*:1])C(=O)[*:2]].K.L.C.Y.N.[Orn].[NCC[C@@H](N[*:1])C(=O)[*:2]].[Dab].W.S.Y}$PEPTIDE1,PEPTIDE1,1:R3-6:R3|PEPTIDE1,PEPTIDE1,1:R1-14:R2$$$V2.0)					1.5	1	1	1
CC(C)C[C@@H]1NC(=O)[C@@H]2CCCN2C(=O)[C@@H](C)NC(=O)[C@H](CO)NC(=O)[C@@H]2CC(=O)NCC[C@H](NC1=O)C(=O)N[C@@H](Cc1ccc(O)cc1)C(=O)N[C@@H](CCN)C(=O)N[C@@H](CCN)C(=O)N[C@@H](CCN)C(=O)N[C@@H](CCN)C(=O)N[C@@H](Cc1c[nH]c3ccccc13)C(=O)N[C@@H](CCN)C(=O)N[C@@H](C(C)(C)C)C(=O)N2 [Example 26, cyclo(-Leu-Dab-Tyr-Dab-Dab-Dab-Dab-Trp-Dab-tBuGly-Asp-Ser-^DAla-Pro-)] (HELM PEPTIDE1{D.S.[dA].P.L.[Dab].Y.[Dab].[Dab].[Dab].[Dab].W.[Dab].[CC(C)(C)[C@H](N[*:1])C(=O)[*:2]]}$PEPTIDE1,PEPTIDE1,1:R3-6:R3|PEPTIDE1,PEPTIDE1,1:R1-14:R2$$$V2.0)	2	2	1	1				
CC(C)C[C@@H]1NC(=O)[C@H](CCCNC(=N)N)NC(=O)[C@@H](C)NC(=O)[C@H](C(C)C)NC(=O)[C@@H]2CSSC[C@H](NC1=O)C(=O)N[C@@H](Cc1ccc(O)cc1)C(=O)N[C@@H](CC(N)=O)C(=O)N[C@@H](CCCN)C(=O)N[C@H](CCN)C(=O)N[C@@H](CCN)C(=O)N[C@@H](Cc1c[nH]c3ccccc13)C(=O)N[C@@H](CCN)C(=O)N[C@@H](Cc1ccc(O)cc1)C(=O)N2 [Example 79, cyclo(-Leu-Cys-Tyr-Asn-Orn-^DDab-Dab-Trp-Dab-Tyr-Cys-Val-^DAla-Arg-)] (HELM PEPTIDE1{C.V.[dA].R.L.C.Y.N.[Orn].[NCC[C@@H](N[*:1])C(=O)[*:2]].[Dab].W.[Dab].Y}$PEPTIDE1,PEPTIDE1,1:R3-6:R3|PEPTIDE1,PEPTIDE1,1:R1-14:R2$$$V2.0)	1.5	1	1	1				
CC(C)C[C@@H]1NC(=O)[C@H](CCCNC(=N)N)NC(=O)[C@@H](C)NC(=O)[C@H](C(C)C)NC(=O)[C@@H]2CSSC[C@H](NC1=O)C(=O)N[C@@H](Cc1ccc(O)cc1)C(=O)N[C@@H](CCN)C(=O)N[C@@H](CCCN)C(=O)N[C@H](CCN)C(=O)N[C@@H](CCN)C(=O)N[C@@H](Cc1c[nH]c3ccccc13)C(=O)N[C@@H](CC(N)=O)C(=O)N[C@@H](Cc1ccc(O)cc1)C(=O)N2 [Example 73, cyclo(-Leu-Cys-Tyr-Dab-Orn-^DDab-Dab-Trp-Asn-Tyr-Cys-Val-^DAla-Arg-)] (HELM PEPTIDE1{C.V.[dA].R.L.C.Y.[Dab].[Orn].[NCC[C@@H](N[*:1])C(=O)[*:2]].[Dab].W.N.Y}$PEPTIDE1,PEPTIDE1,1:R3-6:R3|PEPTIDE1,PEPTIDE1,1:R1-14:R2$$$V2.0)	1.5	0.75	1	1				
CC(C)C[C@@H]1NC(=O)[C@@H]2CSSC[C@H](NC(=O)[C@H](C(C)C)NC(=O)[C@H](CCCNC(=N)N)NC(=O)[C@@H](CCN)NC1=O)C(=O)N[C@@H](Cc1ccc(O)cc1)C(=O)N[C@@H](CC(N)=O)C(=O)N[C@@H](CCCN)C(=O)N[C@H](CCN)C(=O)N[C@@H](CCN)C(=O)N[C@@H](Cc1c[nH]c3ccccc13)C(=O)N[C@@H](CO)C(=O)N[C@@H](Cc1ccc(O)cc1)C(=O)N2 [Example 69, cyclo(-Val-Cys-Tyr-Asn-Orn-^DDab-Dab-Trp-Ser-Tyr-Cys-Leu-^DDab-Arg-)] (HELM PEPTIDE1{C.L.[NCC[C@@H](N[*:1])C(=O)[*:2]].R.V.C.Y.N.[Orn].[NCC[C@@H](N[*:1])C(=O)[*:2]].[Dab].W.S.Y}$PEPTIDE1,PEPTIDE1,1:R3-6:R3|PEPTIDE1,PEPTIDE1,1:R1-14:R2$$$V2.0)	1	1	1	1				

Continued, in another order:

Acinetobacter baumannii DSM 30008 MIC ([1]; DSM 30008) [µg/mL]	Escherichia coli ATCC 25922 MIC ([2]; ATCC 25922) [µg/mL]	Klebsiella pneumoniae ATCC 13883 MIC ([3]; ATCC 13883) [µg/mL]	SMILES	Hemolysis at 100 μg/mL ([4]; red cells of human, 1 h, 100) [%]	Acinetobacter baumannii DSM 30008 MIC [1, 5] [µg/mL]	Escherichia coli ATCC 25922 MIC [2, 5] [µg/mL]	Klebsiella pneumoniae ATCC 13883 MIC [3, 5] [µg/mL]	Hemolysis at 100 μg/mL ([4]; 100 μg/mL, 20% hRBC, 1 h at 37° C.) [%]
1.5	1	1	CC(C)C[C@@H]1NC(=O)[C@H](CCN)NC(=O)[C@@H](CCN)NC(=O)[C@H]([C@@H](C)O)NC(=O)[C@@H]2CCNC(=O)C[C@H](NC1=O)C(=O)N[C@@H](Cc1ccc(O)cc1)C(=O)N[C@@H](CC(N)=O)C(=O)N[C@@H](CCCN)C(=O)N[C@H](CCN)C(=O)N[C@@H](CCN)C(=O)N[C@@H](Cc1c[nH]c3ccccc13)C(=O)N[C@@H](CO)C(=O)N[C@@H](C(C)(C)C)C(=O)N2 [Example 76, cyclo(-Leu-Asp-Tyr-Asn-Orn-^DDab-Dab-Trp-Ser-tBuGly-Dab-Thr-^DDab-Dab-)] (cyclo(LDYN[Orn][dDab][Dab]WS[Tle][Dab]T[dDab][Dab]); lactam 2-11)	2				
1	1	0.5	CC(C)[C@@H]1NC(=O)[C@@H]2CCCN2C(=O)[C@@H](C)NC(=O)[C@H]([C@@H](C)O)NC(=O)[C@H](CO)NC(=O)[C@H](C(C)(C)C)NC(=O)[C@H](CCN)NC(=O)[C@H](Cc2c[nH]c3ccccc23)NC(=O)[C@H](CCN)NC(=O)[C@@H](CCN)NC(=O)[C@H](CCN)NC(=O)[C@H](CCN)NC(=O)[C@H](Cc2ccc(O)cc2)NC(=O)[C@H](CN)NC1=O [Example 46, cyclo(-Val-Dap-Tyr-Dab-Dab-^DDab-Dab-Trp-Dab-tBuGly-Ser-Thr-^DAla-Pro-)] (cyclo([Dab][Dab][dDab][Dab]W[Dab][Tle]ST[dA]PV[Dap]Y))	0				
4	2	2	CC[C@H](C)[C@@H]1NC(=O)[C@H](Cc2ccc(O)cc2)NC(=O)[C@@H](C)NC(=O)[C@H](CO)NC(=O)[C@H](C)NC(=O)[C@H](C(C)(C)C)NC(=O)[C@H](CCN)NC(=O)[C@H](Cc2c[nH]c3ccccc23)NC(=O)[C@H](CCN)NC(=O)[C@@H](CCN)NC(=O)[C@H](CCCN)NC(=O)[C@H](CCN)NC(=O)[C@H](Cc2ccc(O)cc2)NC(=O)[C@H]([C@@H](C)O)NC1=O [Example 49, cyclo(-Ile-Thr-Tyr-Dab-Orn-^DDab-Dab-Trp-Dab-tBuGly-Ala-Ser-^DAla-Tyr-)] (HELM PEPTIDE1{A.S.[dA].Y.I.T.Y.[Dab].[Orn].[NCC[C@@H](N[*:1])C(=O)[*:2]].[Dab].W.[Dab].[CC(C)(C)[C@H](N[*:1])C(=O)[*:2]]}$PEPTIDE1,PEPTIDE1,1:R1-14:R2$$$V2.0)	2				
